In patent publication US11596622B2, “Mazindol treatment for heroin dependence and substance use disorder” (NLS Pharmaceutics AG, priority 2017, dated 2023):

Assays:
Assay type in all cases: in vivo
C57BL/6J mice = test: Conditioned place preference induced by the drug itself; details: for Distance travelled in the drug-paired compartment / Distance travelled in the two compartments (Drug + Vehicle) / Distance travelled in the vehicle-paired compartment / Distance travelled, drug-paired minus vehicle-paired compartment / Time spent in the drug-paired compartment / Time spent in the vehicle-paired compartment / Time spent, drug-paired minus vehicle-paired compartment: vehicle before preference session, day 12, mean
Text: Conditioned place preference (CPP) is a widely used procedure for studying the potential addictive effect of drugs. CPP is based upon the tendency of rodents to approach a stimulus that has previously been paired with an incentive state induced by a drug. A drug that induces a CPP may be suspected to present reinforcing effects that could lead to addiction. Numerous addictive drugs, such as opiate agonists or stimulants induce a CPP and a behavioral sensitization.
The effect of mazindol on place preference was examined in C57BL/6J mice using a method similar to the one used by Schlussman et al. (9).
The second experiment consisted in determining the optimal dose of heroin which induces the most significant CPP. For this purpose, the CPP induced by heroin at 1.25, 2.5 and 5 mg/kg was examined.
(§1) Following the habituation session (on day 1), animals (N=72) were pseudo-randomly assigned to two groups, a Control group (N=12) and a Heroin group (N=60), in a way that there was no significant difference between the two groups for the total distance travelled in the apparatus and for the percentage of time spent and the percentage distance travelled in the grey compartment and in the striped compartment.
Animals received the following treatments immediately before drug sessions: • Control group: vehicle • Heroin group: heroin (1.25 mg/kg)
as §1, with “three” for “two”, “(N=12),” for “(N=12) and”, “(N=48) and a Mazindol group (N=12),” for “(N=60),”
Animals received the following treatments before drug sessions: • Control group: vehicle, i.p. immediately before session. • Heroin group: heroin (1.25 mg/kg), i.p. immediately before session. • MAZ 2 group: mazindol (2 mg/kg), i.p. 60 min before session.
Animals received the following treatments before preference session: • Control group: vehicle of mazindol, i.p. 60 min before testing. • Hero group: vehicle of mazindol, i.p. 60 min before testing. • Hero-Mz 1 group: mazindol (1 mg/kg), i.p. 60 min before testing. • Hero-Mz 2 group: mazindol (2 mg/kg), i.p. 60 min before testing. • Hero-A 1 group: D-amphetamine (1 mg/kg), i.p. 30 min before testing. • MAZ 2 group: vehicle of mazindol, i.p. 60 min before testing.

Sprague-Dawley rats = test: Naloxone precipitated withdrawal syndrome of heroin
Method: The abrupt cessation of chronic opiate use results in a well characterized withdrawal syndrome with symptoms that include pain sensitivity, dysphoria, irritability, restlessness, insomnia, diarrhea and hyperventilation. In the present model, the naloxone-precipitated withdrawal syndrome is measured in rodents. Animals are chronically treated with a drug, e.g. morphine or heroin. Opiate withdrawal syndrome is elicited by an acute injection of the opiate antagonist Naloxone.
The effect of mazindol on heroin withdrawal syndrome elicited by naloxone was examined in Sprague-Dawley rats using a method similar to the one used by Jiang et al. (10),
Animals were subdivided into two groups. One group received heroin two i.p. injections/day for 12 consecutive days and a single injection on the 13th day (total: 25 injections) as exposed in Table 3 group received saline instead of heroin following the same protocol.
On day 13, animals received treatments and were tested according to the following time schedule: • T=0: i.p. injection of heroin (15 mg/kg) or vehicle. • T=2.5 h: animals individually placed in a transparent Plexiglas observation boxes (40×40×40 cm). • T=3.5 h: i.p. injection of treatment (see below). • T=4 h: i.p. injection of naloxone (5 mg/kg), start of test: observation of withdrawal symptoms as indicated in Table 4. • T=5 h: end of test, animals placed back into their home cages.
Animals received the following treatments at T 3.5 h (i.e. 30 min before injection of naloxone and observation of symptoms): • 1) Animals treated with saline during the intoxication period (days 1-12) and at T0 on day 13: • Saline group (N=8): saline (0.9% NaCl). • 2) Animals treated with […] during the intoxication period (days 1-12) and at T0 on day 13: • Hero group (N=14): saline (0.9% NaCl). • Amph 1 group (N=4): D-amphetamine (1 mg/kg). • Maz 0.125 group (N=5): mazindol (0.125 mg/kg). • Maz 0.25 group (N=6): mazindol (0.25 mg/kg). • Maz 0.5 group (N=6): mazindol (0.5 mg/kg). • Maz 1 group (N=6): mazindol (1 mg/kg). • Maz 2 group (N=5): mazindol (2 mg/kg).
A weighting factor was ascribed for each sign from which a score was calculated.
Examples: • Body weight before naloxone injection=241 g; after naloxone injection=236 g: • Weight loss score=2=100×(241−236)/241 • Number of escape attempts=8: • Score for escape attempts=2 • Profuse salivation present: • Score for profuse salivation
A global withdrawal score was then calculated: • Global score=the sum of the scores

[1] = Heroin intoxication procedure after Jiang et al., mortality; details: two subcutaneous injections/day of heroin at increasing doses (3 to 30 mg/kg)
Method: In the protocol planned before, it was planned to follow the method used by Jiang et al. Mice had to receive two subcutaneous injections/day of heroin at increasing doses (3 to 30 mg/kg) for 9 consecutive days and a single injection on the 10th day. […] It is likely that the discrepancy of toxicity between our experiments and the study of Jiang et al. partly resulted from difference in purity of heroin. Therefore, it was necessary to develop a method allowing to observe clear withdrawal symptoms and an acceptable mortality rate. This method is presented below. For information, 178 rats, including those used for the development of the method, have been used for this study of which 54 have been included in the results presented here.

[2] = Hero group N = 12 (Table 6): heroin 1.25 mg/kg i.p. before drug sessions
[3] = Hero group N = 24 (Table 5): heroin 1.25 mg/kg i.p. before drug sessions
[4] = Hero n = 14: heroin i.p. days 1-13 (2-15 mg/kg), saline 30 min before naloxone 5 mg/kg, mean
[5] = heroin-treated vs. saline rats, naloxone 5 mg/kg

## CC(=O)Oc1ccc2c3c1O[C@H]1[C@@H](OC(C)=O)C=C[C@H]4[C@@H](C2)N(C)CC[C@@]341 [Heroin]
C57BL/6J mice; [2]
  Distance travelled in the drug-paired compartment: 7919.1 cm
  Distance travelled in the two compartments (Drug + Vehicle): 13647.5 cm
  Distance travelled in the vehicle-paired compartment: 5728.4 cm
  Distance travelled, drug-paired minus vehicle-paired compartment: 2190.6 cm
  Time spent in the drug-paired compartment: 1063.0 s
  Time spent in the vehicle-paired compartment: 737.0 s
  Time spent, drug-paired minus vehicle-paired compartment: 325.9 s
C57BL/6J mice; [3]
  Distance travelled in the drug-paired compartment: 7943.6 cm
  Distance travelled in the two compartments (Drug + Vehicle): 13892.0 cm
  Distance travelled in the vehicle-paired compartment: 5948.4 cm
  Distance travelled, drug-paired minus vehicle-paired compartment: 1995.3 cm
  Time spent in the drug-paired compartment: 1023.7 s
  Time spent in the vehicle-paired compartment: 776.3 s
  Time spent, drug-paired minus vehicle-paired compartment: 247.4 s
C57BL/6J mice; heroin 1.25 mg/kg before drug sessions
  place preference induced by the drug: induced a place preference
C57BL/6J mice; heroin 1.25 mg/kg before drug sessions, preference session
  total distance travelled in two compartments (FIG. 3): No significant modification
C57BL/6J mice; heroin 1.25, 2.5 and 5 mg/kg
  CPP induced by heroin (second experiment): induced CPP at the three doses tested
Sprague-Dawley rats; [4]
  Abdominal constrictions score (Abd C): 4.1
  Abnormal posture score (Ab P): 0.2
  Chromodacryorrhea score (Chr): 1.1
  Diarrhea score (Diarr): 2.0
  Erection or ejaculation score (Er Ej): 0.0
  Escape attempts score (Esc A): 1.1
  Facial fasciculation or teeth chattering score (F F T C): 2.0
  Global Score: 22.4
  Irritability score (Irrit): 0.0
  Profuse salivation score (Pr Sal): 5.5
  Ptosis score (Ptos): 0.1
  Swallowing movements score (Sw M): 0.9
  Weight loss score (W Los): 1.9
  Wet dog shakes score (W D S): 3.4
Sprague-Dawley rats; [5]
  global score and scores for weight loss, escape attempts, wet dog shake, diarrhea, facial fasciculation or teeth chattering and profuse salivation: induced an increase
  scores for abdominal constrictions and chromodacryorrhea: non-significantly increased
[1]
  mortality: substantial mortality
